In PMC7601397, “Discovery of Sulforaphane as a Potent BACE1 Inhibitor Based on Kinetics and Computational Studies” (Nutrients, 2020) one finds Ki data, which are given here for one compound.

Each structure is given as a SMILES string.

The assay has as its target BACE1 (Homo sapiens, UniProt P56817). Put plainly: FRET enzyme assay (kit); Dixon and Lineweaver-Burk kinetics. The format is biochemical.

Sequence of BACE1 (P56817 46-457): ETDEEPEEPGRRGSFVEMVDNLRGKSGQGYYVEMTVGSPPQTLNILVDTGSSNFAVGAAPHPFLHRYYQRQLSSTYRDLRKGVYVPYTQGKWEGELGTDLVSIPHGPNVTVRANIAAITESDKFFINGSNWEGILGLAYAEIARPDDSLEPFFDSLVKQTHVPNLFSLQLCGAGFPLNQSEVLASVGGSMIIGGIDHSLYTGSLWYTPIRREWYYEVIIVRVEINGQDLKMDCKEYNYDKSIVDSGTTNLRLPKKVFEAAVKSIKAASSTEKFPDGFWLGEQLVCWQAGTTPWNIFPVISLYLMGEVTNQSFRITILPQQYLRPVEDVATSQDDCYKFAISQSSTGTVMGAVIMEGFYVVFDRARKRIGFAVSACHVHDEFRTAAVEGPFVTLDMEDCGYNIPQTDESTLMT

The Ki is the dissociation constant of the complex between target and ligand, obtained from inhibition or displacement. Lower therefore signals a stronger hold on the target. Regarding `C[S+]([O-])CCCCN=C=S` (stereo not shown) [Sulforaphane], the Ki amounted to 3.1 µM.
